Literature values as cited in patent US20030119753A1, “Novel ascorbic acid compounds, methods of synthesis and application use thereof” (priority 2001, published 2003).

Conditions: relative to ascorbic acid

more stable than ascorbic acid: 20 times
SMILES: O=C1O[C@H]([C@@H](O)CO)C(O)=C1OS(=O)(=O)O [L-ascorbate 2-sulphate]
